Tests used:
[1] = target: Sodium-dependent dopamine transporter (Homo sapiens, UniProt Q01959)
Adenosine receptor A3 = target: T1, Adenosine receptor A3 (Homo sapiens, UniProt P0DMS8)
T1 sequence (P0DMS8 whole entry): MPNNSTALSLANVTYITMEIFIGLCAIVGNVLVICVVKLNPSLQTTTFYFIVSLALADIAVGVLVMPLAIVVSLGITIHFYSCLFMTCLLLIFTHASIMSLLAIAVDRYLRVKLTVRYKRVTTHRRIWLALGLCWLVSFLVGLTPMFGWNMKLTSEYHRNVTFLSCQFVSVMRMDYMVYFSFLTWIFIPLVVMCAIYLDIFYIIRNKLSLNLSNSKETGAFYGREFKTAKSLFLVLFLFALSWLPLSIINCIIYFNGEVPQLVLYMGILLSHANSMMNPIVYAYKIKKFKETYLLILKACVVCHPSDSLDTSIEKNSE

[2] = target: Voltage-gated inwardly rectifying potassium channel KCNH2 (Homo sapiens, UniProt Q12809); type: functional
Voltage-gated inwardly rectifying potassium channel KCNH2, sequence (Q12809 whole entry): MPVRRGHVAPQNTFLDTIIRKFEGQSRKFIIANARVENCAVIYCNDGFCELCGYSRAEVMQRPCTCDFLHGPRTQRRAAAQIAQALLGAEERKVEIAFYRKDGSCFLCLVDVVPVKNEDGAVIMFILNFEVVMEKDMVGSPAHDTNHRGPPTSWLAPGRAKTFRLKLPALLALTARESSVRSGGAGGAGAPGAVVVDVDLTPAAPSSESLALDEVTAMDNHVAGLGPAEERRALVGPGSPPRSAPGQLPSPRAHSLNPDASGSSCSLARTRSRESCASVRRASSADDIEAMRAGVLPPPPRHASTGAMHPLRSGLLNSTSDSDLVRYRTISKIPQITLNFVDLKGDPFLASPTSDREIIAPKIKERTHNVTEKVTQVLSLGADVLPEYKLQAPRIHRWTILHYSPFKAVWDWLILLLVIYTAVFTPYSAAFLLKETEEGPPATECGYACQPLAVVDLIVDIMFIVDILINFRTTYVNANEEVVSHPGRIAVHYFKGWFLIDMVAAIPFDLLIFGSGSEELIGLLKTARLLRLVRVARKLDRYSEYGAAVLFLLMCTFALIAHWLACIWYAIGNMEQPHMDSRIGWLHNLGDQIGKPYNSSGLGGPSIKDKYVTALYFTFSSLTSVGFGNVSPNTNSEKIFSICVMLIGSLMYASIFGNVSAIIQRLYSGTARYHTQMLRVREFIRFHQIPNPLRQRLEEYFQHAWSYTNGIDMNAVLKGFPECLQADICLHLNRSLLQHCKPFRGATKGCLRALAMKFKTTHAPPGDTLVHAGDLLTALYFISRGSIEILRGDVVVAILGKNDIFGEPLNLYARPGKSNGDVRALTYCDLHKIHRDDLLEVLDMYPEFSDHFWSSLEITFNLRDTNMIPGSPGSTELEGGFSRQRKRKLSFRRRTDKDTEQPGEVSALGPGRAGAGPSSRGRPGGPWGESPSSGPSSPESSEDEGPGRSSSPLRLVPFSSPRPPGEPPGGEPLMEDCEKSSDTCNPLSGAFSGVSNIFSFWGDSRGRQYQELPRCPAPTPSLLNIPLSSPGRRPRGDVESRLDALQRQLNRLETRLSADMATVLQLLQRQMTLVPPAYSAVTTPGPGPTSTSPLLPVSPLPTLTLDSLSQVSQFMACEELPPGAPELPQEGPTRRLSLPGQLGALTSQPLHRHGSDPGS

[3] = target: Kappa-type opioid receptor (Homo sapiens, UniProt P41145)
Kappa-type opioid receptor, sequence (P41145 whole entry): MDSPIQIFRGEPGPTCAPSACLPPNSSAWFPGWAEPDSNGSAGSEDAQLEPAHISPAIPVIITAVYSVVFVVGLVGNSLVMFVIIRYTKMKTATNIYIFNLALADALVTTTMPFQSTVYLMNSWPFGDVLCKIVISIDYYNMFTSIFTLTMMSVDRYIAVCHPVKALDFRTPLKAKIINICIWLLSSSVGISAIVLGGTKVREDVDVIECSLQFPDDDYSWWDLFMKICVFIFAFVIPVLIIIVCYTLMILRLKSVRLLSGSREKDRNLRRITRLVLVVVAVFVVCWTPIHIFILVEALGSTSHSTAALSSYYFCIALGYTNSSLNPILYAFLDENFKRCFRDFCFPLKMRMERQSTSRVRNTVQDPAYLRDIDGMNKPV

[4] = target: T2, Alpha-2A adrenergic receptor (Homo sapiens, UniProt P08913); type: functional, cell-based
T2 sequence (P08913 whole entry): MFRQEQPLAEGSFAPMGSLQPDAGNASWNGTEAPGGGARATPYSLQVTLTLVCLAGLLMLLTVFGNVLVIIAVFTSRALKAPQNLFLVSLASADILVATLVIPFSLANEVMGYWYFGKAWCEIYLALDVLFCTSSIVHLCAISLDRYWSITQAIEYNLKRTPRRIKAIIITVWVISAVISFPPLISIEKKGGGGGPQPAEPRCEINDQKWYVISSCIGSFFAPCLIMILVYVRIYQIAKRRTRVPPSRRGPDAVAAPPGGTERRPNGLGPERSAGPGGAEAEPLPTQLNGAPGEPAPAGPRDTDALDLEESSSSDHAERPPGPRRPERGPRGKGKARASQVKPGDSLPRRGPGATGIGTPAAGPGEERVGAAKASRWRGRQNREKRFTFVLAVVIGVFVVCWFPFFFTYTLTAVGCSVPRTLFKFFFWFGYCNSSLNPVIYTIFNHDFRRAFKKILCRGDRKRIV

Vasopressin V1a receptor = Vasopressin V1a receptor (Homo sapiens, UniProt P37288)
Vasopressin V1a receptor, sequence (P37288 whole entry): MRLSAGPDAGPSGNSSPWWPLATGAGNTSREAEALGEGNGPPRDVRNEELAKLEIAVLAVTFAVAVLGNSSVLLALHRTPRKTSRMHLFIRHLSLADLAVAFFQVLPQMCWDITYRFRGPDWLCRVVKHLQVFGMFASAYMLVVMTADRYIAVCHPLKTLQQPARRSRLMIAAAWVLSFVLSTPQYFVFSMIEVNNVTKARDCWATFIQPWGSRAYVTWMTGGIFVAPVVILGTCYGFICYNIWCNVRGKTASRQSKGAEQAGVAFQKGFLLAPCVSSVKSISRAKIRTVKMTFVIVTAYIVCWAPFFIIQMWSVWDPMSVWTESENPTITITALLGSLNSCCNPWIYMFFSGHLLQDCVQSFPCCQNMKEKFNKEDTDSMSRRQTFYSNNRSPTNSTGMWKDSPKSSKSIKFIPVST

[5] = target: T3, Amine oxidase [flavin-containing] A (Homo sapiens, UniProt P21397); type: functional
T3 sequence (P21397 whole entry): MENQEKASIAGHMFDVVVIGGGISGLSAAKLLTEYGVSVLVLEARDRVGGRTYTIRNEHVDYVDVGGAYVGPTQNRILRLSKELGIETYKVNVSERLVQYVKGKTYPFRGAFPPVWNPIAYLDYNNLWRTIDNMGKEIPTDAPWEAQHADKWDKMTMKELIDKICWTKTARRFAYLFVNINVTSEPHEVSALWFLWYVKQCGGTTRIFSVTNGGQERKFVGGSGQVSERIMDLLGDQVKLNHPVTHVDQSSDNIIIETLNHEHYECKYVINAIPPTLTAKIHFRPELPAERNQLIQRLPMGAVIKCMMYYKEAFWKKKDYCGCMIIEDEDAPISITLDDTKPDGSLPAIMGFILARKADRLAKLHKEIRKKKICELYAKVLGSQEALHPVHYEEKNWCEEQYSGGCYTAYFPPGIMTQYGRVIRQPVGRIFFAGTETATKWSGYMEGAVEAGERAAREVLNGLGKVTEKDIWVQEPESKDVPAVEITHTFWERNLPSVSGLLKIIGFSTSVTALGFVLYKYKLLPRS

[6] = target: Delta-type opioid receptor (Homo sapiens, UniProt P41143)
Delta-type opioid receptor, sequence (P41143 whole entry): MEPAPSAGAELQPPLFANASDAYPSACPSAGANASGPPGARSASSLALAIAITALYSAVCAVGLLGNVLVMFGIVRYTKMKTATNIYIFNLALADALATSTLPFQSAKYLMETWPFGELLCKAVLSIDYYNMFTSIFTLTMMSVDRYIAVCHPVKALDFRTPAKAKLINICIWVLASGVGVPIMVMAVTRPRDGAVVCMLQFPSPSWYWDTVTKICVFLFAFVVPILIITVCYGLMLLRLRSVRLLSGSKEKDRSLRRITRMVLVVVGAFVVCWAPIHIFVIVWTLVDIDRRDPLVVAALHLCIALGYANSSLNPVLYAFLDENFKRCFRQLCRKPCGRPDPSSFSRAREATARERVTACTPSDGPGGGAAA

Progesterone receptor = target: T4, Progesterone receptor (Homo sapiens, UniProt P06401); type: functional
T4 sequence (P06401 whole entry): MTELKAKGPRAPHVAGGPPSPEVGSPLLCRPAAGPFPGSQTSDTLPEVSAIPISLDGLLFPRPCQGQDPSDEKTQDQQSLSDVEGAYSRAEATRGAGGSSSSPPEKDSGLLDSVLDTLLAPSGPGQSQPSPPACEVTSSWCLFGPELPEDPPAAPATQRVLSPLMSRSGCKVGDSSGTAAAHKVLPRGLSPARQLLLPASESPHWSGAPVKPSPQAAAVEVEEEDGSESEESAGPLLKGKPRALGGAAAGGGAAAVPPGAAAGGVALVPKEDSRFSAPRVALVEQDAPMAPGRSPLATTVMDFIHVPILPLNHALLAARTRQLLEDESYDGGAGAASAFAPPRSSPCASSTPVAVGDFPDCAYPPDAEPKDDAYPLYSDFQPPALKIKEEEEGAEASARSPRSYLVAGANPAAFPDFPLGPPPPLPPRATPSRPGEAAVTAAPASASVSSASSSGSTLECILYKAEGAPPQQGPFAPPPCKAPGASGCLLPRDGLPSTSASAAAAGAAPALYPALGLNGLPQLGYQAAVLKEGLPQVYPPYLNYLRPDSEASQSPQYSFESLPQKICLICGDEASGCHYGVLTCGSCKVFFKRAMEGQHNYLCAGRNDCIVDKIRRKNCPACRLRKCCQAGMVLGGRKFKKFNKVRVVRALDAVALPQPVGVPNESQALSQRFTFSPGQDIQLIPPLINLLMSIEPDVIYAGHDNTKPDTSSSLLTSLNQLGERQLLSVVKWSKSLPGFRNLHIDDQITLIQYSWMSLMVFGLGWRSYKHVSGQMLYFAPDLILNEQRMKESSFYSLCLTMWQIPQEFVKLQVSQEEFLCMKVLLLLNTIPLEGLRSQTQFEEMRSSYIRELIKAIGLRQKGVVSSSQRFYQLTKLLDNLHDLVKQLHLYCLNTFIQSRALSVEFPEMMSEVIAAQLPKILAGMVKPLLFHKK
Also: assay procedure not described here.

Sodium-dependent dopamine transporter, sequence (Q01959 whole entry): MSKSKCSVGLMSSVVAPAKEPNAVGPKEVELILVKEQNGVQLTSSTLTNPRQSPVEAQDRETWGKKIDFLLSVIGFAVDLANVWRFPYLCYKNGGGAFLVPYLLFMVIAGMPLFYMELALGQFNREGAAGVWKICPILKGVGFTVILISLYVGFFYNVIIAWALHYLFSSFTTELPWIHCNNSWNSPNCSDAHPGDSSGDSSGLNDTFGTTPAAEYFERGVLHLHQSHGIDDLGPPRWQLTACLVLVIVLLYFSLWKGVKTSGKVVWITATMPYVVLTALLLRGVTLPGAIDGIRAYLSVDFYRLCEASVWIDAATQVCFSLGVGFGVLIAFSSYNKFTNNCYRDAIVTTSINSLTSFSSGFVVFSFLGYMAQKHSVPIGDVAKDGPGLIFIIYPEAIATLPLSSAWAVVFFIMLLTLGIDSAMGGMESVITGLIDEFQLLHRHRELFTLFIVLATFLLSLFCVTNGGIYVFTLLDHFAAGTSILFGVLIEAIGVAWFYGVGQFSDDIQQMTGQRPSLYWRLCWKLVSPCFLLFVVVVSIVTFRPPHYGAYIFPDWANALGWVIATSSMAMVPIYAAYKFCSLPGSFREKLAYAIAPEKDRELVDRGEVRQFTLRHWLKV

Row | Compound | AC50 [1] | AC50 (Adenosine receptor A3) | AC50 [2] | AC50 [3] | AC50 [4] | AC50 (Vasopressin V1a receptor) | AC50 [5] | AC50 [6] | AC50 (Progesterone receptor)
1 | CC(=O)c1ccc(S(=O)(=O)NC(=O)NC2CCCCC2)cc1 [ACETOHEXAMIDE] | > 10 µM | > 10 µM | > 30 µM | > 10 µM | > 30 µM | > 10 µM | > 10 µM | > 30 µM | > 10 µM
2 | COc1cc(C)c(/C=C/C(C)=C/C=C/C(C)=C/C(=O)O)c(C)c1C [ACITRETIN] | > 10 µM | > 10 µM | > 30 µM | > 10 µM | > 10 µM | > 10 µM | > 10 µM | > 30 µM | > 30 µM
3 | CCC1(CCC(C)C)C(=O)NC(=O)NC1=O [AMOBARBITAL] | > 10 µM | > 10 µM | > 30 µM | > 10 µM | > 10 µM | – | > 10 µM | > 30 µM | > 10 µM
4 | COc1ccc(C2C(=O)c3ccccc3C2=O)cc1 [ANISINDIONE] | > 10 µM | > 10 µM | > 30 µM | > 10 µM | > 10 µM | – | 91 µM | > 30 µM | > 30 µM
5 | O=C(O)c1ccc(NC(=O)[C@H](Cc2ccc(O)cc2)NC(=O)c2ccccc2)cc1 [BENTIROMIDE] | > 10 µM | > 10 µM | > 30 µM | > 10 µM | > 10 µM | > 10 µM | > 10 µM | > 30 µM | > 10 µM
6 | NS(=O)(=O)c1cc2c(cc1Cl)N=C(CSCc1ccccc1)NS2(=O)=O [BENZTHIAZIDE] | > 10 µM | > 10 µM | > 30 µM | > 10 µM | 1.7 µM | > 10 µM | > 30 µM | > 30 µM | > 30 µM
7 | CC(C)[C@@H](C)/C=C/[C@@H](C)[C@H]1CC[C@H]2/C(=C/C=C3\C[C@@H](O)CC[C@@H]3C)CCC[C@]12C [DIHYDROTACHYSTEROL] | > 10 µM | > 10 µM | > 30 µM | > 10 µM | > 10 µM | > 10 µM | > 10 µM | > 30 µM | 11.2 µM
8 | CC(=O)[C@H]1CC[C@H]2[C@@H]3C[C@H](C)C4=CC(=O)CC[C@]4(C)[C@H]3[C@@H](O)C[C@]12C [MEDRYSONE] | > 10 µM | > 10 µM | > 30 µM | > 10 µM | > 10 µM | > 10 µM | > 10 µM | > 30 µM | –
9 | CCCC(C)(COC(N)=O)COC(N)=O [MEPROBAMATE] | > 10 µM | > 10 µM | > 30 µM | > 10 µM | > 10 µM | > 10 µM | > 30 µM | > 30 µM | > 10 µM
10 | COc1ccc2cc(CCC(C)=O)ccc2c1 [NABUMETONE] | 7.8 µM | > 10 µM | > 30 µM | > 10 µM | > 10 µM | – | – | > 30 µM | > 10 µM
11 | O=C(c1cc(Cc2n[nH]c(=O)c3ccccc23)ccc1F)N1CCN(C(=O)C2CC2)CC1 [OLAPARIB] | > 30 µM | > 30 µM | > 30 µM | > 10 µM | > 10 µM | > 30 µM | > 10 µM | > 30 µM | > 30 µM
12 | CO[C@H]1C[C@H](O[C@H]2CC[C@@]3(C)[C@H](CC[C@@H]4[C@@H]3CC[C@]3(C)[C@@H](C5=CC(=O)OC5)[C@@H](OC(C)=O)C[C@]43O)C2)O[C@@H](C)[C@@H]1O [OLEANDRIN] | – | – | > 30 µM | > 30 µM | > 30 µM | – | > 30 µM | > 30 µM | –
13 | NC(=O)NC(=O)Cc1ccccc1 [PHENACEMIDE] | > 10 µM | > 10 µM | > 30 µM | > 10 µM | > 10 µM | – | > 10 µM | > 30 µM | > 10 µM
14 | CCCN(CCC)S(=O)(=O)c1ccc(C(=O)O)cc1 [PROBENECID] | > 10 µM | > 10 µM | > 30 µM | > 10 µM | > 10 µM | – | > 10 µM | > 30 µM | > 10 µM
15 | CCc1nc(N)nc(N)c1-c1ccc(Cl)cc1 [PYRIMETHAMINE] | 2.2 µM | > 10 µM | 0.649 µM | > 30 µM | > 30 µM | > 10 µM | > 30 µM | > 30 µM | > 10 µM
16 | CCN(CC)CCCC(C)Nc1c2ccc(Cl)cc2nc2ccc(OC)cc12 (stereo not drawn) [QUINACRINE] | – | – | 0.7 µM | – | – | – | – | – | –
17 | CC1=C(/C=C/C(C)=C/C=C/C(C)=C/CO)C(C)(C)CCC1 [RETINOL] | > 10 µM | > 10 µM | – | – | > 10 µM | > 10 µM | > 10 µM | > 30 µM | > 30 µM
18 | Cc1cc(C)nc(NS(=O)(=O)c2ccc(N)cc2)n1 [SULFAMETHAZINE] | > 10 µM | > 10 µM | > 30 µM | > 10 µM | > 10 µM | – | > 30 µM | > 30 µM | > 10 µM
19 | CCCCCCCC(=O)CC[C@@H]1[C@@H](C/C=C\CCCC(=O)OC(C)C)[C@@H](O)C[C@H]1O [UNOPROSTONE ISOPROPYL] | 7.2 µM | 5.6 µM | – | – | – | – | > 30 µM | > 30 µM | 21 µM
20 | CC(c1cc2ccccc2s1)N(O)C(N)=O (stereo not drawn) [ZILEUTON] | > 10 µM | > 10 µM | > 30 µM | > 10 µM | > 10 µM | – | > 10 µM | > 30 µM | > 30 µM
